The results in this text go back to patent publication US20190119282A1, “IMIDAZOPYRIDAZINES USEFUL AS INHIBITORS OF THE PAR-2 SIGNALING PATHWAY” (Vertex Pharmaceuticals Incorporated, priority 2013, published 2019).

pIC50: −log10 of the molar value. Marks after values point to notes of the source that are not given here.

Data set [1] concerns UTP-stimulated Ca2+ response in HT-29 cells. Briefly: Ca FLIPR TETRA assay, ANTAGONIST mode, stimulation with 0.6 μM UTP. The class given is cell-based, human. Particulars: Homo sapiens; HT-29 cells, antagonist mode, stimulation with 0.6 μM UTP. In short, it runs like this:
(§1)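 FLIPR Tetra Ca2+ read-out in HT-29 cells, calcium 5 dye. Compound preincubation 30 min r.t., with an initial read for agonist activity. Final activator levels: SLIGKV 8 μM, thrombin 1 U/mL, trypsin 3.1 U/mL, UTP 0.6 μM.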

The subject of data set [2] is Thrombin-stimulated Ca2+ response in HT-29 cells. Description: Ca FLIPR TETRA assay, ANTAGONIST mode, stimulation with 1 U/mL Thrombin. The class given is cell-based, human. The following applies: Homo sapiens; HT-29 cells, antagonist mode, stimulation with 1 U/mL Thrombin. The essentials:
as §1

In a further data set the test system is TNBS-induced colitis. Briefly: Mouse TNBS-induced colitis model. The class given is in vivo, BALB/c mice. Particulars: mice. How it is done: Male Sprague Dawley rats and BALB/c mice were housed in groups in a temperature controlled room and were acclimatized in the animal facility for at least three days prior to use. Experiments were performed during the light phase of the cycle. Animals have food and water ad libitum.
Example 65: Mouse TNBS-Induced Colitis Model
Colitis was induced by intra-colonic administration of 1.5 mg of TNBS in 75 μl of 40% v/volume ethanol solution under isoflurane anesthesia at a depth of 4 cm from the anal verge. Mice were kept with their heads down for 30 additional seconds post administration to ensure distribution of TNBS. Disease activity scores were assessed for a period of 5 days starting prior to TNBS injection (baseline reading). […] Test compounds or vehicle (0.5% MC/0.1% SDS) were systemically administered at the indicated doses in a volume of 10 mL/kg each day for 5 days and starting 1 day before TNBS.
Data are expressed as the mean % effect. Statistical significance was assessed using t-test for comparison between naive and inflamed rats, and one-way ANOVA followed by post-hoc comparison test for overall drug effectiveness. A difference between groups is considered significant with a p value of <0.05. *, p<0.05; **, p<0.01; ***, p<0.001 vs. vehicle.

Data set [3] addresses T1, PAR2 (HT-29 cells, SLIGKV activation) (Homo sapiens, UniProt P55085).
T1 construct: host or cells: HT-29 cells
T1 sequence (P55085 26-397): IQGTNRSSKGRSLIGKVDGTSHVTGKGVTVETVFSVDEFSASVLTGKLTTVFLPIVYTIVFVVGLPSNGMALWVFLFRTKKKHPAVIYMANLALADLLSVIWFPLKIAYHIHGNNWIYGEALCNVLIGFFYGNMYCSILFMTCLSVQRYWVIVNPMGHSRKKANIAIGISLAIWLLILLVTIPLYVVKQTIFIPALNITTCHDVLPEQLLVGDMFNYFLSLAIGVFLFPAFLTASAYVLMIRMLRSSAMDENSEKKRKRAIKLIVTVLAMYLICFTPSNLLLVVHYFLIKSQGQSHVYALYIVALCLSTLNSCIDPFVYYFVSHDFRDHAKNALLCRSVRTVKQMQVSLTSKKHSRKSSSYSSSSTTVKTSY
Briefly: Ca FLIPR TETRA assay, ANTAGONIST mode, stimulation with 8 μM SLIGKV. Particulars: HT-29 cells, antagonist mode, stimulation with 8 μM SLIGKV. The class given is cell-based. The essentials: as §1

Data set [4] in a line: In vivo rat pharmacokinetics (intravenous and oral). The following applies: plasma. In short, it runs like this: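 Rats dosed by tail-vein bolus at 0.5–1 mg/kg in NMP-based solutions, or by oral gavage at 1–600 mg/kg as solution, suspension or spray-dried dispersion. Jugular blood in K3EDTA gave plasma or citrate-diluted whole blood; LC-MS/MS quantification, non-compartmental PK analysis.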

The target of data set [5] is T2, PAR2 (HT-29 cells, trypsin activation) (Homo sapiens, UniProt P55085).
T2 construct: host or cells: HT-29 cells
T2 sequence (P55085 26-397): T1 sequence (P55085 26-397)
Briefly: Ca FLIPR TETRA assay, ANTAGONIST mode, stimulation with 3.1 U/mL trypsin. It counts as cell-based. The following applies: HT-29 cells, antagonist mode, stimulation with 3.1 U/mL trypsin. The essentials:
as §1

A word on the pIC50: it is −log10 of the IC50, conventionally taken in molar units. A word on the bioavailability: it is dose-corrected exposure relative to a reference, in per cent. For the compound `Cc1nc(C(=O)N2CCN(C(=O)c3cn4nc(-c5ccc(F)cc5)cc(C(C)(C)C)c4n3)C(C)(C)C2)n[nH]1` [Compound I-343, (8-(tert-butyl)-6-(4-fluorophenyl)imidazo[1,2-b]pyridazin-2-yl)(2,2-dimethyl-4-(5-methyl-1H-1,2,4-triazole-3-carbonyl)piperazin-1-yl)methanone], the pIC50 is 5.99 in data set [1], 5.95 in data set [2], 9.30 in data set [3] and 9.10 in data set [5]. In addition, the “% improvement in Disease activity scores” value with TNBS-induced colitis (dose 15 mg/kg each day for 5 days starting 1 day before TNBS) is reported as 24%; in the data set on TNBS-induced colitis (dose 50 mg/kg each day for 5 days starting 1 day before TNBS), 33* %; in the data set with TNBS-induced colitis (dose 150 mg/kg each day for 5 days starting 1 day before TNBS), 62*** %. For the same compound, the clearance in data set [4] (intravenous 0.5 to 1 mg/kg, read-out: Clp) was found to be 3.39 mL/min/kg. For the same compound, in data set [4] (intravenous, read-out: Vss), the Vd amounted to 1.65 L/kg. In addition, the bioavailability in data set [4] (oral by gavage) came to 62%. Besides, the half-life in data set [4] (read-out: T ½ (converted)) was 7.03 h.
